Laboratory results: article PMC3667675 (ChemMedChem, 2011)
Square brackets hold non-standard residues; d marks the D form. Peptide text beside a SMILES is read from it.

Legend:
[1] = tested on: KOR; experiment: Ligand-stimulated [35S]GTPγS binding assay, KOR expressing CHO cell membranes; format: biochemical; settings: ratio of KB values
[2] = tested on: C57Bl/6J mice; format: in vivo
[3] = target: KOR (Mus musculus, UniProt P33534); format: in vivo, C57Bl/6J mice; settings: U50,488 10 mg/kg i.p.; 3 h pretreatment
Chain of KOR (Mus musculus, UniProt P33534) (P33534 whole entry): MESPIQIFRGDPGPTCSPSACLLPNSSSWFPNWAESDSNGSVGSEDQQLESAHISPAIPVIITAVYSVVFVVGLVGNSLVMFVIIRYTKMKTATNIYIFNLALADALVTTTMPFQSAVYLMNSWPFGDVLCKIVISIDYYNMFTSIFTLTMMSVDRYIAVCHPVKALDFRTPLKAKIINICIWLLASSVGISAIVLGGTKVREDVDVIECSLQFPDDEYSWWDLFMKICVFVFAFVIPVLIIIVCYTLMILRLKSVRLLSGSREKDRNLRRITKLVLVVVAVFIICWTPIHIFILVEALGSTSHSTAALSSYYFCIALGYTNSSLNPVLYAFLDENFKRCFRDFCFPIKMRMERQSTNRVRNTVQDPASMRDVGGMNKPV

[4] = tested on: opioid receptors; format: in vivo, C57Bl/6J mice
[5] = tested on: DOR; experiment: Radioligand binding assay, cloned DOR in CHO cell membranes, [3H]DPDPE; settings: read-out: Ki (nM ± SEM) DOR, mean ± SEM
[6] = target: MOR; format: binding; settings: read-out: Ki (nM ± SEM) MOR; CHO membranes, [3H]DAMGO, mean ± SEM
[7] = target: MOR (Rattus norvegicus, UniProt P33535); experiment: biochemical
Chain of MOR (Rattus norvegicus, UniProt P33535) (P33535 whole entry): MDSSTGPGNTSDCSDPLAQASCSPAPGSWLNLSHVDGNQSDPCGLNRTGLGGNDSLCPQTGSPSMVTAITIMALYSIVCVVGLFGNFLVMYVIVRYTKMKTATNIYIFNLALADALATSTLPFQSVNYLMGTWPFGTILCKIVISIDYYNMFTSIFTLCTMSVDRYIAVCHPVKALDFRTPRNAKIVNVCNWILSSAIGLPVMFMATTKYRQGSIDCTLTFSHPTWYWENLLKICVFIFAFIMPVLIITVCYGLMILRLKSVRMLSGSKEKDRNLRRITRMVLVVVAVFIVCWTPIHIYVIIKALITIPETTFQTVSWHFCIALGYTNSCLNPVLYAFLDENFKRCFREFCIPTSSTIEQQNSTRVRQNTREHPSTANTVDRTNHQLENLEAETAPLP

[8] = tested on: KOR; experiment: Radioligand binding assay, cloned KOR in CHO cell membranes, [3H]diprenorphine; settings: read-out: Ki (nM ± SEM) KOR, mean ± SEM

## C[C@@H]1NC(=O)[C@H](Cc2c[nH]c3ccccc23)NC(=O)[C@H](Cc2ccccc2)NC(=O)[C@H]2CCCN2C1=O [Peptide 2, cyclo[Ala-DPro-Phe-Trp]] (cyclo(A[dP]FW))
[1]
  KOR antagonist potency relative to parent peptide 1 (more potent): 25 fold
[2]; after i.c.v. administration
  Time of peak antinociceptive response: 30 min
[2]; i.c.v., at peak response, C57Bl/6J mice
  ED50 (and 95% confidence interval), antinociception: 1.49 (0.39-7.41) nmol
[3]
  KOR antagonist potency in vivo compared with parent peptide 1: somewhat more potent
[4]; naloxone 15 nmol i.c.v., 25 min prior, peptides 2 (3 nmol), 3 (10 nmol), 4 (0.3 nmol), 5 (30 nmol) i.c.v.
  Effect of naloxone pretreatment on peptide antinociception: significantly antagonized
[4]; nor-BNI 10 mg/kg i.p., did not reach statistical significance
  Reduction of antinociceptive activity by nor-BNI pretreatment: > 30%
[5]
  Ki: 8680 ± 1270 nM
[6]
  Ki: 32.1 ± 3.9 nM
[7]
  Kb: 7.3 ± 1.6 nM
[8]
  Ki: 8.03 ± 1.67 nM
